Data as given in ChEMBL document CHEMBL5252612, “A novel selective estrogen receptor degrader induces cell cycle arrest in breast cancer via ERα degradation and the autophagy-lysosome pathway” (Bioorg Med Chem, 2023).
Active and inactive are the calls of the source. The calls are words filed in the database; no cut-off is given here.

Legend:
T47D [1] = experiment: Induction of autophagy in human T47D cells assessed as downregulation of MYC protein expression incubated for 24 hrs by western blot analysis; format: functional, cell-based; conditions: dose 1-5 µM
T47D [2] = experiment: Induction of autophagy in human T47D cells assessed as increase in LC3 protein expression by western blot analysis; format: functional, cell-based
T47D [3] = experiment: Induction of autophagy in human T47D cells assessed as increase in autophagosome number by measuring LC3 puncta formation by immunofluorescence assay; format: functional, cell-based
T47D [4] = experiment: Induction of autophagy in human T47D cells assessed as increase in lysosome number by LysoTracker dye based confocal microscopy; format: functional, cell-based
[5] = Anticancer activity against ER-alpha positive human LCC2 cells assessed as reduction in cell viability measured after 48 hrs by CCK8 assay; format: functional, cell-based; conditions: lcc2
MCF7 = experiment: Antitumor activity against human MCF7 cells xenografted in BALB/c nude mouse assessed as reduction in tumor volume at 4 mg/kg, ip administered every other day by caliper analysis; format: functional, organism-based

CO[C@H]1C[C@@H]2CC[C@@H](C)[C@@](O)(O2)C(=O)C(=O)N2CCCC[C@H]2C(=O)O[C@H]([C@H](C)C[C@@H]2CC[C@@H](O)[C@H](OC)C2)CC(=O)[C@H](C)/C=C(\C)[C@@H](O)[C@@H](OC)C(=O)[C@H](C)C[C@H](C)/C=C/C=C/C=C/1C
Activity (T47D [1]): Dose-Dependent Effect

CC/C(=C(\c1ccccc1)c1ccc(OCCN(C)C)cc1)c1ccccc1 [TAMOXIFEN]
Activity (T47D [2]): Active
Activity (T47D [3]): Active
Activity (T47D [4]): Active
IC50 [5]: Not Active

C[C@]12CC[C@@H]3c4ccc(O)cc4C[C@@H](CCCCCCCCC[S+]([O-])CCCC(F)(F)C(F)(F)F)[C@H]3[C@@H]1CC[C@@H]2O (some centres undefined)
Activity (T47D [2]): Active
Activity (MCF7): Active
Activity (T47D [3]): Active
Activity (T47D [4]): Active
